Measured values reported in paper doi:10.1101/2024.08.19.608619, “Discovery of potent SARS-CoV-2 nsp3 macrodomain inhibitors uncovers lack of translation to cellular antiviral response” (bioRxiv, 2024).
“And” between values parts separate entries of the source, which are not always exact repeats. Equal entries are not always repeated.

Tests used:
5-HT1A (h) = target: T1, 5-HT1A (h) (Homo sapiens, UniProt P08908); experiment: In vitro CEREP profiling, 5-HT1A (h) (agonist radioligand); type: binding; settings: test compound concentration 10 uM
T1 construct: purchased Eurofins Cerep (SafetyScreen44), recognised from the panel format
T1 sequence (P08908 1-422): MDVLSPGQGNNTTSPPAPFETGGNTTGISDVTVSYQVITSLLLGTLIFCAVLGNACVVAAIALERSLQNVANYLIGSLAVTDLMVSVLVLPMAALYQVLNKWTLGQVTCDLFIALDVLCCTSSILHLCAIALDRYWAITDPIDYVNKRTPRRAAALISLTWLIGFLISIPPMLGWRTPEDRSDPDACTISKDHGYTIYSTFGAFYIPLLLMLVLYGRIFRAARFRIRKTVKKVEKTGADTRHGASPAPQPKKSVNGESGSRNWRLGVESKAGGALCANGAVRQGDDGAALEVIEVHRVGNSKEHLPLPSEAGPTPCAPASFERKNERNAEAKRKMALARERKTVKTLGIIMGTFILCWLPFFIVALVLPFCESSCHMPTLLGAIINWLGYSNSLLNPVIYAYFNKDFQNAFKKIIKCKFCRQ
Text: (§1) Supplement media-1.zip/Safety_Panel_Profile.csv, table | column: perc_inhibition

Na+ channel (site 2) = experiment: In vitro CEREP profiling, Na+ channel (site 2) (antagonist radioligand); type: binding; settings: test compound concentration 10 uM
Text: as §1

NMDA = experiment: In vitro CEREP profiling, NMDA (antagonist radioligand); type: binding
Text: as §1

M1 (h) = target: T2, M1 (h) (Homo sapiens, UniProt P11229); experiment: In vitro CEREP profiling, M1 (h) (antagonist radioligand); type: binding; settings: test compound concentration 10 uM
T2 construct: purchased Eurofins Cerep (SafetyScreen44), recognised from the panel format
T2 sequence (P11229 1-460): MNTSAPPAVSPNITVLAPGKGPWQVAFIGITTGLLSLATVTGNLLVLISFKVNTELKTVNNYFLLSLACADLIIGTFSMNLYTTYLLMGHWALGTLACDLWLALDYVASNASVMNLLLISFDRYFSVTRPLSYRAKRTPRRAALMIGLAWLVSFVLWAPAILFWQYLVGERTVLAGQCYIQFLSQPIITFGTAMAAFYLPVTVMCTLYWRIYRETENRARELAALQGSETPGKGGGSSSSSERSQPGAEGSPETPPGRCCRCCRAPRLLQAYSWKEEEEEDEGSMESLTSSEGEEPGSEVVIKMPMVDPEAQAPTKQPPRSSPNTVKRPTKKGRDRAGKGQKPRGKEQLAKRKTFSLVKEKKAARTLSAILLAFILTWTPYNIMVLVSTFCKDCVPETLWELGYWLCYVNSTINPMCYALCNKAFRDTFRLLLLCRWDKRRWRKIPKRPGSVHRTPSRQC
Text: as §1

[1] = In vitro dog hepatocyte stability; type: in vitro ADME
Text: Supplement media-1.zip/Hepatocyte_Stability.csv, table | column: clint; t_half

alpha2A (h) = target: T3, alpha2A (h) (Homo sapiens, UniProt P08913); experiment: In vitro CEREP profiling, alpha2A (h) (antagonist radioligand); type: binding; settings: test compound 10 uM
T3 construct: purchased Eurofins Cerep (SafetyScreen44), recognised from the panel format
T3 sequence (P08913 1-465): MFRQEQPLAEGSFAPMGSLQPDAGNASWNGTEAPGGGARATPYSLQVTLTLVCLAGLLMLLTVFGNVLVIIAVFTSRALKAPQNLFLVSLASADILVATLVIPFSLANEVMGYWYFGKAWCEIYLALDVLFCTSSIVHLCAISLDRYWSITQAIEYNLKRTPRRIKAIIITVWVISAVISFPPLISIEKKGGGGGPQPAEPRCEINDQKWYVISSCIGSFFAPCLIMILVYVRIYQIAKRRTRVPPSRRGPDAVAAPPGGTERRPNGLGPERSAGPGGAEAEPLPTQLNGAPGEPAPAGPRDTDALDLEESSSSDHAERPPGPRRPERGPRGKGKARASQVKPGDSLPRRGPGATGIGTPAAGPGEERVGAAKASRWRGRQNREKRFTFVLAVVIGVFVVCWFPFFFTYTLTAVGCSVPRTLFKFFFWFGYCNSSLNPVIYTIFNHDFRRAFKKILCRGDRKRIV
Text: as §1

D1 (h) = target: T4, D1 (h) (Homo sapiens, UniProt P21728); experiment: In vitro CEREP profiling, D1 (h) (antagonist radioligand); type: binding; settings: test compound 10 uM
T4 construct: purchased Eurofins Cerep (SafetyScreen44), recognised from the panel format
Text: as §1

Protein binding = type: in vitro ADME
Text: Supplement media-1.zip/Protein_Binding.csv, table | column: fu; perc_bound; perc_free; perc_recovered

[2] = target: T5, N neuronal alpha4beta2 (h) (Homo sapiens, UniProt P17787+P43681); experiment: In vitro CEREP profiling, N neuronal alpha4beta2 (h) (agonist radioligand); type: binding; settings: test compound concentration 10 uM
T5 construct: purchased Eurofins Cerep (SafetyScreen44), recognised from the panel format
Text: as §1

alpha1A (h) = target: T6, alpha1A (h) (Homo sapiens, UniProt P35348); experiment: In vitro CEREP profiling, alpha1A (h) (antagonist radioligand); type: binding; settings: test compound 10 uM
T6 construct: purchased Eurofins Cerep (SafetyScreen44), recognised from the panel format
T6 sequence (P35348 1-466): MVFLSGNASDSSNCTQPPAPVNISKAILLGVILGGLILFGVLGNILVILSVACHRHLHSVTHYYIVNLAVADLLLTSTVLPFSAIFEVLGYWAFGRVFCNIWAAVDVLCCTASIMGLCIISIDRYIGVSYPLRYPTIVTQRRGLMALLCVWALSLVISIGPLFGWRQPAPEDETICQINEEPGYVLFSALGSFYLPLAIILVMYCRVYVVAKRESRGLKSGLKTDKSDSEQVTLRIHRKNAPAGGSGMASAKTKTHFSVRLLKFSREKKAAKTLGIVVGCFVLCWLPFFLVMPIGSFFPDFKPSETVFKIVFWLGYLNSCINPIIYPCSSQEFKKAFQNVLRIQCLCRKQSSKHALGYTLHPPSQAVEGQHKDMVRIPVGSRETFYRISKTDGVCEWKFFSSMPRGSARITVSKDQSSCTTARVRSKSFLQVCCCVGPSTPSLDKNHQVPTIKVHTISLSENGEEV
Text: as §1

[3] = system: Ca2+ channel (L, dihydropyridine site); experiment: In vitro CEREP profiling, Ca2+ channel (L, dihydropyridine site) (antagonist radioligand); type: binding; settings: test compound concentration 10 uM
Text: as §1

[4] = Hepatic microsomal stability, HLM; type: in vitro ADME, human; settings: for clint / perc_remaining / t_half / perc_remaining_no_cofactor / microsomal CLint: In vitro human liver microsomal stability; for perc_remaining_no_cofactor: no cofactor; for microsomal CLint: liver microsomes
[5] = In vitro dog plasma protein binding
[6] = In vitro fetal calf serum protein binding
[7] = In vitro human plasma protein binding
[8] = In vitro mouse plasma protein binding
[9] = In vitro rat plasma protein binding
[10] = test compound concentration 10 uM
[11] = read-out: perc_inhibition (% inhibition of the binding of a ligand specific for each target)

T5 sequence (P43681 29-627 limits assumed): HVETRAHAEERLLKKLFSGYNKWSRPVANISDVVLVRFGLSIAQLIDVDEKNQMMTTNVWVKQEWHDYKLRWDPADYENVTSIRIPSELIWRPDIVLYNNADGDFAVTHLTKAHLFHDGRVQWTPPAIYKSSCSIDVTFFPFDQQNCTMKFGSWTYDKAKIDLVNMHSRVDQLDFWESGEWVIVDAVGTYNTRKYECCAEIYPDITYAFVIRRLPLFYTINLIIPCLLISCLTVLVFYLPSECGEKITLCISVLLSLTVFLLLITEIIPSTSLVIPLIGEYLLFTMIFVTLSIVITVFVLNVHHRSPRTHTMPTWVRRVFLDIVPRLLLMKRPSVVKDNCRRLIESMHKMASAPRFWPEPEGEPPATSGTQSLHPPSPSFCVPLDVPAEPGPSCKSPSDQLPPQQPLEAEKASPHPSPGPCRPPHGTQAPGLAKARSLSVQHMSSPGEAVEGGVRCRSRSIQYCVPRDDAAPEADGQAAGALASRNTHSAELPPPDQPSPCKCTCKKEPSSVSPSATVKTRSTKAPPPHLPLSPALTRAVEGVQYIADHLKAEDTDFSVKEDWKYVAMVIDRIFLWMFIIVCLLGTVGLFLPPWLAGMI
T5 sequence (P17787 26-502): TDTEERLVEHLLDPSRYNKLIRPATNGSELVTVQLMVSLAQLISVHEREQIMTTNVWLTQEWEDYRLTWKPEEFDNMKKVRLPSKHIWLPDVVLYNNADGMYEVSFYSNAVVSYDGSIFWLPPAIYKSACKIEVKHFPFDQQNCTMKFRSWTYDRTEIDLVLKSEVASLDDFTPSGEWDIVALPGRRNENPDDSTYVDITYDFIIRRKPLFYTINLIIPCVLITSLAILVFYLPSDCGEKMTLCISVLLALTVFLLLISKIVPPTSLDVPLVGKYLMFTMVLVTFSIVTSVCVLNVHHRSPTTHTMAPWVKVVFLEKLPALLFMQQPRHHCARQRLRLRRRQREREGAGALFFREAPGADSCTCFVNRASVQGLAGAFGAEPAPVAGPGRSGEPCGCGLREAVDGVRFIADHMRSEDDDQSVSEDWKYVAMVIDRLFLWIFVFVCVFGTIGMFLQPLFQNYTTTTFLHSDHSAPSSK
T4 sequence (P21728 whole entry): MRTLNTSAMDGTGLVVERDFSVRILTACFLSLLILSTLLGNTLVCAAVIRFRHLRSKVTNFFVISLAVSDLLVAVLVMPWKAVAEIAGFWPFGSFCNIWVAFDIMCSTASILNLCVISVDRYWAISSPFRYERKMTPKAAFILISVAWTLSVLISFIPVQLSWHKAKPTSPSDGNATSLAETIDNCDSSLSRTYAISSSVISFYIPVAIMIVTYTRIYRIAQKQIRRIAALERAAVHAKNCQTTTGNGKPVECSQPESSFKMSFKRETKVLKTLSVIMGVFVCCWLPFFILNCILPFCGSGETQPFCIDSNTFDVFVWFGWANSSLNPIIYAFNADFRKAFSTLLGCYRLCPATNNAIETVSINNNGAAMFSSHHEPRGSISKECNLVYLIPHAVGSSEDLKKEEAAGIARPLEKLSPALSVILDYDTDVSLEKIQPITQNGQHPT

Row | Compound | perc_inhibition (% inhibition of the binding of a ligand specific for each target) (5-HT1A (h)) | perc_inhibition (% inhibition of the binding of a ligand specific for each target) (Na+ channel (site 2)) | perc_inhibition (% inhibition of the binding of a ligand specific for each target) (M1 (h)) | clint [1] | t_half [1] | perc_inhibition (% inhibition of the binding of a ligand specific for each target) (alpha2A (h)) | perc_inhibition (% inhibition of the binding of a ligand specific for each target) (D1 (h)) | fu (Protein binding; [5]) | perc_bound (Protein binding; [5]) | perc_free (Protein binding; [5]) | perc_recovered (Protein binding; [5]) | fu (Protein binding; [6]) | perc_bound (Protein binding; [6]) | perc_free (Protein binding; [6]) | perc_recovered (Protein binding; [6]) | perc_inhibition (% inhibition of the binding of a ligand specific for each target) [3] | clint [4] | perc_remaining [4] | t_half [4] | perc_remaining_no_cofactor [4] | other results
1 | C[C@H](C(=O)O)[C@@H](NC(=O)c1ncnc2[nH]ccc12)c1ccc(Br)cc1 [ASAP-0014722] | 2% | 6% | -1% | < 3.0 uL/min/1E6 cells | > 231.0 min | 3% | -8% | 0.039 | 96.1% | 3.94% | 103.6% | 0.043 | 95.7% | 4.3% | 106.3% | -12% | 3.0 µL/min/mg | 92.211% | 573.861 min | 101.611% | perc_inhibition (% inhibition of the binding of a ligand specific for each target) (NMDA; test compound 10 uM): 4%; fu (Protein binding; [7]): 0.026; perc_bound (Protein binding; [7]): 97.4%; perc_free (Protein binding; [7]): 2.6%; perc_recovered (Protein binding; [7]): 99.4%; fu (Protein binding; [8]): 0.111; perc_bound (Protein binding; [8]): 88.9%; perc_free (Protein binding; [8]): 11.1%; perc_recovered (Protein binding; [8]): 94.29%; fu (Protein binding; [9]): 0.044; perc_bound (Protein binding; [9]): 95.6%; perc_free (Protein binding; [9]): 4.41%; perc_recovered (Protein binding; [9]): 93.34%; perc_inhibition (% inhibition of the binding of a ligand specific for each target) [2]: 0%; perc_inhibition (% inhibition of the binding of a ligand specific for each target) (alpha1A (h)): -8%
2 | CNCc1cc(-c2cc3c(N[C@@H](c4ccc5c(c4)S(=O)(=O)CCC5)C(C)C)ncnc3[nH]2)co1 [ASAP-0011176] | 6% | 19% | 47% | 7.3 uL/min/1E6 cells | 94.9 min | 15% | 14% | 0.088 | 91.2% | 8.77% | 70.87% | 0.08 | 92.0% | 8.01% | 78.6% | -3% | 133.0 µL/min/mg | 10.0% | 12.6 min | 95.0% | perc_inhibition (% inhibition of the binding of a ligand specific for each target) (NMDA; [10]): -1%; fu (Protein binding; [7]): 0.08; perc_bound (Protein binding; [7]): 92.0%; perc_free (Protein binding; [7]): 8.01%; perc_recovered (Protein binding; [7]): 78.61%; fu (Protein binding; [8]): 0.031; perc_bound (Protein binding; [8]): 96.9%; perc_free (Protein binding; [8]): 3.14%; perc_recovered (Protein binding; [8]): 94.01%; fu (Protein binding; [9]): 0.072; perc_bound (Protein binding; [9]): 92.8%; perc_free (Protein binding; [9]): 7.24%; perc_recovered (Protein binding; [9]): 95.34%; perc_inhibition (% inhibition of the binding of a ligand specific for each target) [2]: 0%; perc_inhibition (% inhibition of the binding of a ligand specific for each target) (alpha1A (h)): 50%
3 | CC(C)C(Nc1ncnc2[nH]ccc12)c1ccc2c(c1)S(=O)(=O)CCC2 (stereo not shown) [ASAP-0008327] | – | – | – | – | – | – | – | – | – | – | – | – | – | – | – | – | – | 53.0% | 44.7 min | 99.0% | microsomal CLint ([4]; human): 37 µL/min/mg
4 | COc1ccc([C@@H](Cc2nnn[nH]2)NC(=O)c2ncnc3[nH]ccc23)cc1 [ASAP-0008340] | – | – | – | – | – | – | – | – | – | – | – | – | – | – | – | – | 5.0 µL/min/mg | 86.0% | 313.8 min | 110.0% | –
5 | CC(C)[C@@H](Nc1ncnc2[nH]c(-c3cnn(C)c3C#N)cc12)c1ccc2c(n1)OCCO2 [ASAP-0008418] | – | – | – | – | – | – | – | – | – | – | – | – | – | – | – | – | 59.0 µL/min/mg and 56.0 µL/min/mg | 34.0% and 36.0% | 28.1 min and 29.7 min | 98.0% and 104.0% | –
6 | CC(C)[C@@H](Nc1ncnc2[nH]c(-c3cnn(C)c3C#N)cc12)c1ccc2c(n1)OCCO2 [ASAP-0010716] | 22% | 12% | 8% | 3.91 uL/min/1E6 cells | 177.0 min | 9% | 10% | 0.029 | 97.1% | 2.93% | 91.53% | 0.038 | 96.2% | 3.84% | 96.46% | 10% | – | – | – | – | perc_inhibition (% inhibition of the binding of a ligand specific for each target) (NMDA; [10]): 1%; fu (Protein binding; [7]): 0.005; perc_bound (Protein binding; [7]): 99.5%; perc_free (Protein binding; [7]): 0.507%; perc_recovered (Protein binding; [7]): 111.8%; fu (Protein binding; [8]): 0.027; perc_bound (Protein binding; [8]): 97.3%; perc_free (Protein binding; [8]): 2.67%; perc_recovered (Protein binding; [8]): 94.71%; fu (Protein binding; [9]): 0.022; perc_bound (Protein binding; [9]): 97.8%; perc_free (Protein binding; [9]): 2.16%; perc_recovered (Protein binding; [9]): 100.0%; perc_inhibition (% inhibition of the binding of a ligand specific for each target) [2]: -2%; perc_inhibition (% inhibition of the binding of a ligand specific for each target) (alpha1A (h)): 11%
7 | Cc1nn(C)cc1-c1cc2c(NC(c3ccc4c(c3)S(=O)(=O)CCC4)C(C)C)ncnc2[nH]1 (stereo not shown) [ASAP-0011446] | – | -1% | – | – | – | – | – | – | – | – | – | – | – | – | – | 12% | – | 1.0% | 6.1 min | 113.0% | inhibition at 10 µM (5-HT1A (h); [11]): 10%; perc_inhibition (% inhibition of the binding of a ligand specific for each target) (NMDA; [10]): -2%; inhibition at 10 µM (M1 (h); [11]): 11%; inhibition at 10 µM (alpha2A (h); [11]): 5%; inhibition at 10 µM (D1 (h); [11]): 3%; inhibition at 10 µM [2, 11]: -2%; inhibition at 10 µM (alpha1A (h); [11]): 8%; clearance (metabolic stability), in words ([4]; HLM/MLM): moderate-to-high clearance; microsomal CLint [4]: 273 µL/min/mg
